Experimental data as given in patent US20180256541A1, “COMPOSITIONS HAVING ANTI-FUGETACTIC PROPERTIES FOR TREATMENT OF CANCER” (THE GENERAL HOSPITAL CORPORATION DBA MASSACHUSETTS GENERAL …, priority 2015, published 2018).

Key:
human CD3+ T cells [1] = conditions: CI of 1.0 is the control, triplicate wells
Procedure: Freshly prepared and purified human CD3^+ T cells were prepared from healthy donor peripheral blood. 20,000 T cells were loaded into the upper chamber of the Transwell in control, chemotactic or fugetactic settings with AMD3100 at concentrations between 0.1 μM and 10 μM. Migrated cells were counted in the lower chamber and migration quantitated as previously described. Vianello et al. The Journal of Immunology, 2006, 176: 2902-2914; Righi et al., Cancer Res.; 71(16); 5522-34, each of which is incorporated herein in its entirety.
We saw clear evidence of binary or bimodal chemotactic (FIG. 1; CI 2.3 at 1 μM) and fugetactic (FIG. 2; CI=1.6 at 0.1 μM) responses of human CD3+ T cells to AMD3100 (where a CI or chemotactic index of 1.0 is the control). All wells were run in triplicate.

human CD3+ T cells [2] = conditions: T cells pre-incubated with 0.01 μM to 10 mM AMD3100; tumor cells in Transwell; harvest after 3 h
Procedure: For quantitative transmigration assays, purified human CD3^+ T cells (approximately 2×10^4 cells) are added to the upper chamber of a Transwell® insert in each well, to a total volume of 150 μl of Iscove's modified medium.
To determine the anti-fugetactic concentration of AMD3100, the T cells are incubated with 0.01 μM to 10 mM AMD3100 prior to addition to the chamber.
Cells are harvested from the lower chamber after 3 h, and cell counts are performed using a hemocytometer.

c1cc(CN2CCCNCCNCCCNCC2)ccc1CN1CCCNCCNCCCNCC1 [AMD3100, 1,1′-[1,4-phenylenebis(methylene)]bis [1,4,8,11-tetraazacyclotetradecane]]
CI (chemotactic index), chemotactic response (human CD3+ T cells [1]; chemotactic setting, AMD3100 at 1 μM, FIG. 1): 2.3
CI (chemotactic index), fugetactic response (human CD3+ T cells [1]; fugetactic setting, AMD3100 at 0.1 μM, FIG. 2): 1.6
effect on T cell migration (anti-fugetactic at lower, fugetactic at higher concentrations) (human CD3+ T cells [2]): bimodal effect
